# Marks after values point to notes of the source that are not given here.
# Tests used:
# [1] = set-up: method as in doi:10.1021/la981295l; settings: cited from earlier work
# [2] = system: immortal human keratinocytes (HaCaT); assay: Cell viability, NRU assay; format: cell-based
# Protocol: (§1) The immortal human keratinocyte (HaCaT) and the squamous cell carcinoma (A431) were obtained from Celltec, University of Barcelona. The cells were grown in DMEM medium (4.5 g/L glucose) supplemented with 10% (v/v) FBS, 2 mM L-glutamine, 100 U/mL of penicillin and 100 μg/mL of streptomycin at 37 °C under 5% CO2. Cells were routinely cultured in 75 cm^2 culture flasks and were trypsinized using trypsin-EDTA when reached approximately 80% of confluence.
# (§2) HaCaT cells (1 × 10^5 cells/mL) and A431 cells (5 × 10^4 cells/mL) were grown at the defined densities into the central 60 wells of a 96-well microplate. Cells were incubated for 24 h under 5% CO2 at 37 °C. The medium was then removed and the cells were incubated with the surfactants (100 μL), previously diluted 1:1 (v/v), reaching a concentration of […] in DMEM medium supplemented with 5% FBS using two different colorimetric methods for quantification, as follows.
# (§3) The accumulation of the neutral red dye in the lysosomes of viable, undamaged cells constitutes the basis of the neutral red uptake (NRU) assay. After the cells were incubated for 24 h with the corresponding systems at 35.6 µg/mL, the medium was removed and the surfactants´ solutions were incubated for 3 h with the NRU dye solution (50 μg/mL) dissolved in the medium without FBS and phenol red (Lonza). Cells were then washed with sterile PBS, followed by the addition of 100 μL of a solution containing 50% ethanol absolute and 1% acetic acid in distilled water to extract the non-adhered dye. The microplates were then stirred for 5 min at 25 °C to promote the dissolution. Finally, the absorbance of the resulting solutions was measured at λ = 550 nm using a Bio-Rad 550 microplate reader (Hercules, CA, USA).
# [3] = Cell viability, NRU assay; format: cell-based, human; settings: human, HaCaT cells (immortal human keratinocytes); NRU, HaCaT, surfactant in solution at 35.6 µg/mL, 24 h; read-out: cellular viability
# Protocol: as §1, §2, §3
# [4] = system: squamous cell carcinoma (A431); assay: Cell viability, NRU assay; format: cell-based; settings: A431, surfactant in solution at 35.6 µg/mL, 24 h
# Protocol: as §1, §2, §3
# [5] = Apparent pKa by direct titration with NaOH; format: physicochemical; settings: aqueous solution, concentration above the minimum aggregation concentration; pH at semi-equivalence point
# Protocol: In order to determine the ionization state of these gemini surfactants at the pH used to investigate their biological properties, the apparent acid pKa was determined for each of them. The pKap value has been determined by means of a direct titration with NaOH of an aqueous solution of each compound. The surfactant concentrations used were in all cases higher than the minimum aggregation concentration, thus avoiding possible deviations in the pK value due to the monomer–aggregate balance. The pKap values can be estimated from the pH at the semi-equivalence point that is reached when the molar ratio of protonated and non-protonated species is 1:1. In these conditions, we have that the pH = pKa.
# The pKa value of each compound has been determined by means of a direct titration with NaOH of an aqueous solution of each compound. The pH was measured using the pH electrode Thermo Electron Corporation ORION 8103SC and the temperature was controlled by a thermostatic bath, Heto CBN 8-30. The pKa values can be estimated from the pH at the semi-equivalence point, which contains a 1:1 molar ratio of protonated and non-protonated species; at this point, pH = pKap.
compound,measurement,setting,value
"CCCCCCCCCCCC(=O)NC(CCCNC(=N)N)C(=O)NCCCNC(=O)C(CCCNC(=N)N)NC(=O)CCCCCCCCCCC (stereo not drawn) [C3(LA)2, Bis (N^α-lauroyl arginine 1,3-propane) diamide]",CMC (mM) Surface Tension,[1],0.005 * mM
same,γcmc,[1]; surface tension at the cmc,35 * mN/m
same,IC50,"[2]; Homo sapiens, NRU method, HaCaT, above the highest tested concentration",> 35.6 µg/mL
same,"therapeutic index (TI), IC50/MIC ratio","[2]; NRU, HaCaT IC50 versus MIC against the Gram-positive bacteria, E. coli and PA01",higher than one
same,"viability at 24 h, 35.6 µg/mL",[3],66.2%
same,"cytotoxicity, in words",[4],did not cause any apparent cytotoxicity
same,pKap,[5],11.4
